Results: patent US5741785A, “Heterocyclic compounds, their preparation and use” (Novo Nordisk A/S, priority 1994, dated 1998)

Key:
[1] = tested on: AMPA receptor; conditions: reported in J. Med. Chem., 35, 3319-3324, 1992; cited from earlier work
[2] = tested on: quisqualic acid stimulated spreading depression in chicken retina; test: Spreading depression (Test 2), quisqualic acid stimulated, chicken retina; format: cell-based; conditions: Gallus gallus, quisqualate 1 μg/ml, 15 min preincubation, 26° C., read-out: IC50 (50% maximal inhibition of quisqualic acid stimulated spreading depression), TEST 2
Source text: The influence of glutamic acid analogues on secondary effects of glutamate receptor interactions may be studied in vitro by using the phenomenon of spreading depression in chicken retina. Such experiments will provide information as to the efficacies (agonist/antagonist) of the test substances. This is in contrast to binding studies, which only provide information on the affinities of the compounds for the receptor.
The pharmacological properties of the compounds of the present invention can be illustrated by determining their capability for displacing radioactively labelled 2-amino-3-hydroxy-5-methyl-4-isoxazolepropionic acid (AMPA) from the AMPA type receptors. […]
The eyes were initially incubated in normal P.S.S. for 15-30 min. and then transferred to P.S.S. containing quisqualate (1 μg/ml). In this "stimulating solution" S.D.s start spontaneously usually from the edge of the retina, and can be easily observed by eye, The time taken for an S.D. to start in each eye was measured.
After a further 15 min. of incubation in normal P.S.S. the eyes were transferred to normal P.S.S, containing the test compound and incubated for 15 min. […] The time taken for an S.D. to start in each eye was measured again. The eyes were then placed back in normal P.S.S. and after 15 min. the time taken for S.D. to start was measured again, in order to assess the degree of recovery from any drug effects. […]

[3] = target: AMPA type receptors; test: 3H-AMPA binding (Test 1), rat cerebral cortical membrane homogenate; conditions: 5 nM 3H-AMPA, 0° C., 30 min, pH 7.1, Hill analysis; read-out: IC50 (50% displacement of the specific binding of 3H-AMPA), TEST 1
Source text: AMPA receptor binding may be studied by using ^3 H-AMPA as radioligand.
The pharmacological properties of the compounds of the present invention can be illustrated by determining their capability for displacing radioactively labelled 2-amino-3-hydroxy-5-methyl-4-isoxazolepropionic acid (AMPA) from the AMPA type receptors.
The displacement activity of the compounds may be shown by determining the IC50 value which represents the concentration (μM) which causes a displacement of 50% of the specific binding of ^3 H-AMPA.
^3 H-AMPA binding (Test 1)
500/μl of thawed rat cerebral cortical membrane homogenate in Tris-HCl (30 mM), CaCl2 (2.5 mM) and KSCN (100 mM) pH 7.1 were incubated at 0° C. for 30 min. with 25 μl ^3 H-AMPA (5 nM final concentration) and the test compound and buffer. Nonspecific binding was determined by incubation with L-glutamic acid (600/μM final concentration). The binding reaction was terminated by adding 5 ml of ice-cold buffer followed by filtration through Whatman GF/C glass fibre filters and 2×5 ml wash with ice-cold buffer. Bound radioactivity was measured by scintillation counting. IC50 was determined by Hill analysis of at least four concentrations of test compound.

| IC50 [2] | IC50 [3] | Compound | affinity for the AMPA receptor [1] |
| --- | --- | --- | --- |
|  |  | O=c1[nH]c2cc(Cl)c(Cl)cc2n2ccnc12 [7,8-dichloro-imidazo[1,2-a]quinoxaline-4(5H)-one] | reasonable affinity |
| 1100 nM | 450 nM | Cc1c(C(=O)O)nc2c(=O)[nH]c3cc(C(F)(F)F)ccc3n12 [Example 2, 2-Carboxy-1-methyl-7-trifluoromethylimidazo[1,2-a]quinoxalin-4(5H)-one] |  |
